According to US20070049564A1 (Wyeth, priority 2005, published 2007):
≈ marks a conversion by molar mass, not a printed value. Read-outs that look alike come from different tables or passages of the source.

Columns and labels:
Assay in all cases: MIC, broth microdilution
E. coli GC 2233 = settings: Escherichia coli
E. coli GC 2270 = settings: Escherichia coli
E. coli GC 2271 = settings: Escherichia coli
E. coli GC 2272 = settings: Escherichia coli
E. coli GC 4560 = settings: Escherichia coli
E. coli GC 6465 = settings: Escherichia coli
E. coli GC 3226 = settings: Escherichia coli
E. coli GC 2203 = settings: Escherichia coli
E. coli GC 1073 = settings: Escherichia coli
P. aeruginosa GC 2214 = settings: Pseudomonas aeruginosa
S. aureus GC 1131 = settings: Staphylococcus aureus
S. aureus GC 6467 = settings: Staphylococcus aureus
S. aureus GC 1079 = settings: Staphylococcus aureus
S. aureus GC 6335 = settings: Staphylococcus aureus
S. aureus GC 6469 = settings: Staphylococcus aureus
S. epidermidis GC 4935 = settings: Staphylococcus epidermidis
E. faecalis GC 2265 = settings: Enterococcus faecalis
E. faecalis GC 2267 = settings: Enterococcus faecalis
E. faecium GC 2243 = settings: Enterococcus faecium
c. albicans GC 3066 = test system: c. albicans GC 3066

MIC (E. coli GC 2233; GC2233, read-out: MINIMAL INHIBITORY CONCENTRATION MIC, pre-incubated in Human Serum): > 64 µg/mL
MIC (E. coli GC 2233; GC2233, read-out: MINIMAL INHIBITORY CONCENTRATION MIC, pre-incubated in Mouse Serum): 2 µg/mL (≈ 2.64 µM)
MIC (E. coli GC 2233; GC2233, read-out: MINIMAL INHIBITORY CONCENTRATION MIC, pre-incubated in Water): > 64 µg/mL
MIC (E. coli GC 2270; GC2270, read-out: MINIMAL INHIBITORY CONCENTRATION MIC, pre-incubated in Human Serum): > 64 µg/mL
MIC (E. coli GC 2270; GC2270, read-out: MINIMAL INHIBITORY CONCENTRATION MIC, pre-incubated in Mouse Serum): 2 µg/mL (≈ 2.64 µM)
MIC (E. coli GC 2270; GC2270, read-out: MINIMAL INHIBITORY CONCENTRATION MIC, pre-incubated in Water): > 64 µg/mL
MIC (E. coli GC 2271; GC2271, read-out: MINIMAL INHIBITORY CONCENTRATION MIC, pre-incubated in Human Serum): > 64 µg/mL
MIC (E. coli GC 2271; GC2271, read-out: MINIMAL INHIBITORY CONCENTRATION MIC, pre-incubated in Mouse Serum): 2 µg/mL (≈ 2.64 µM)
MIC (E. coli GC 2271; GC2271, read-out: MINIMAL INHIBITORY CONCENTRATION MIC, pre-incubated in Water): > 64 µg/mL
MIC (E. coli GC 2272; GC2272, read-out: MINIMAL INHIBITORY CONCENTRATION MIC, pre-incubated in Human Serum): > 64 µg/mL
MIC (E. coli GC 2272; GC2272, read-out: MINIMAL INHIBITORY CONCENTRATION MIC, pre-incubated in Mouse Serum): 2 µg/mL (≈ 2.64 µM)
MIC (E. coli GC 2272; GC2272, read-out: MINIMAL INHIBITORY CONCENTRATION MIC, pre-incubated in Water): > 64 µg/mL
MIC (E. coli GC 4560; GC4560, read-out: MINIMAL INHIBITORY CONCENTRATION MIC, pre-incubated in Human Serum): 4 µg/mL (≈ 5.28 µM)
MIC (E. coli GC 4560; GC4560, read-out: MINIMAL INHIBITORY CONCENTRATION MIC, pre-incubated in Mouse Serum): 2 µg/mL (≈ 2.64 µM)
MIC (E. coli GC 4560; GC4560, read-out: MINIMAL INHIBITORY CONCENTRATION MIC, pre-incubated in Water): 4 µg/mL (≈ 5.28 µM)
MIC (E. coli GC 6465; GC6465, read-out: MINIMAL INHIBITORY CONCENTRATION MIC, pre-incubated in Human Serum): > 64 µg/mL
MIC (E. coli GC 6465; GC6465, read-out: MINIMAL INHIBITORY CONCENTRATION MIC, pre-incubated in Mouse Serum): 8 µg/mL (≈ 10.6 µM)
MIC (E. coli GC 6465; GC6465, read-out: MINIMAL INHIBITORY CONCENTRATION MIC, pre-incubated in Water): > 64 µg/mL
MIC (E. coli GC 3226; GC3226, read-out: MINIMAL INHIBITORY CONCENTRATION MIC, pre-incubated in Human Serum): > 64 µg/mL
MIC (E. coli GC 3226; GC3226, read-out: MINIMAL INHIBITORY CONCENTRATION MIC, pre-incubated in Mouse Serum): 4 µg/mL (≈ 5.28 µM)
MIC (E. coli GC 3226; GC3226, read-out: MINIMAL INHIBITORY CONCENTRATION MIC, pre-incubated in Water): > 64 µg/mL
MIC (E. coli GC 2203; GC2203, read-out: MINIMAL INHIBITORY CONCENTRATION MIC, pre-incubated in Human Serum): > 64 µg/mL
MIC (E. coli GC 2203; GC2203, read-out: MINIMAL INHIBITORY CONCENTRATION MIC, pre-incubated in Mouse Serum): 2 µg/mL (≈ 2.64 µM)
MIC (E. coli GC 2203; GC2203, read-out: MINIMAL INHIBITORY CONCENTRATION MIC, pre-incubated in Water): > 64 µg/mL
MIC (E. coli GC 1073; GC1073, read-out: MINIMAL INHIBITORY CONCENTRATION MIC, pre-incubated in Human Serum): > 64 µg/mL
MIC (E. coli GC 1073; GC1073, read-out: MINIMAL INHIBITORY CONCENTRATION MIC, pre-incubated in Mouse Serum): 4 µg/mL (≈ 5.28 µM)
MIC (E. coli GC 1073; GC1073, read-out: MINIMAL INHIBITORY CONCENTRATION MIC, pre-incubated in Water): > 64 µg/mL
MIC (P. aeruginosa GC 2214; GC2214, read-out: MINIMAL INHIBITORY CONCENTRATION MIC, pre-incubated in Human Serum): > 64 µg/mL
MIC (P. aeruginosa GC 2214; GC2214, read-out: MINIMAL INHIBITORY CONCENTRATION MIC, pre-incubated in Mouse Serum): > 64 µg/mL
MIC (P. aeruginosa GC 2214; GC2214, read-out: MINIMAL INHIBITORY CONCENTRATION MIC, pre-incubated in Water): > 64 µg/mL
MIC (S. aureus GC 1131; GC1131, read-out: MINIMAL INHIBITORY CONCENTRATION MIC, pre-incubated in Human Serum): 2 µg/mL (≈ 2.64 µM)
MIC (S. aureus GC 1131; GC1131, read-out: MINIMAL INHIBITORY CONCENTRATION MIC, pre-incubated in Mouse Serum): 2 µg/mL (≈ 2.64 µM)
MIC (S. aureus GC 1131; GC1131, read-out: MINIMAL INHIBITORY CONCENTRATION MIC, pre-incubated in Water): 4 µg/mL (≈ 5.28 µM)
MIC (S. aureus GC 6467; GC6467, read-out: MINIMAL INHIBITORY CONCENTRATION MIC, pre-incubated in Human Serum): 2 µg/mL (≈ 2.64 µM)
MIC (S. aureus GC 6467; GC6467, read-out: MINIMAL INHIBITORY CONCENTRATION MIC, pre-incubated in Mouse Serum): 2 µg/mL (≈ 2.64 µM)
MIC (S. aureus GC 6467; GC6467, read-out: MINIMAL INHIBITORY CONCENTRATION MIC, pre-incubated in Water): 4 µg/mL (≈ 5.28 µM)
MIC (S. aureus GC 1079; GC1079, read-out: MINIMAL INHIBITORY CONCENTRATION MIC, pre-incubated in Human Serum): 2 µg/mL (≈ 2.64 µM)
MIC (S. aureus GC 1079; GC1079, read-out: MINIMAL INHIBITORY CONCENTRATION MIC, pre-incubated in Mouse Serum): 2 µg/mL (≈ 2.64 µM)
MIC (S. aureus GC 1079; GC1079, read-out: MINIMAL INHIBITORY CONCENTRATION MIC, pre-incubated in Water): 4 µg/mL (≈ 5.28 µM)
MIC (S. aureus GC 6335; GC6335, read-out: MINIMAL INHIBITORY CONCENTRATION MIC, pre-incubated in Human Serum): 4 µg/mL (≈ 5.28 µM)
MIC (S. aureus GC 6335; GC6335, read-out: MINIMAL INHIBITORY CONCENTRATION MIC, pre-incubated in Mouse Serum): 2 µg/mL (≈ 2.64 µM)
MIC (S. aureus GC 6335; GC6335, read-out: MINIMAL INHIBITORY CONCENTRATION MIC, pre-incubated in Water): 4 µg/mL (≈ 5.28 µM)
MIC (S. aureus GC 6469; GC6469, read-out: MINIMAL INHIBITORY CONCENTRATION MIC, pre-incubated in Human Serum): 2 µg/mL (≈ 2.64 µM)
MIC (S. aureus GC 6469; GC6469, read-out: MINIMAL INHIBITORY CONCENTRATION MIC, pre-incubated in Mouse Serum): 2 µg/mL (≈ 2.64 µM)
MIC (S. aureus GC 6469; GC6469, read-out: MINIMAL INHIBITORY CONCENTRATION MIC, pre-incubated in Water): 4 µg/mL (≈ 5.28 µM)
MIC (S. epidermidis GC 4935; GC4935, read-out: MINIMAL INHIBITORY CONCENTRATION MIC, pre-incubated in Human Serum): 4 µg/mL (≈ 5.28 µM)
MIC (S. epidermidis GC 4935; GC4935, read-out: MINIMAL INHIBITORY CONCENTRATION MIC, pre-incubated in Mouse Serum): 2 µg/mL (≈ 2.64 µM)
MIC (S. epidermidis GC 4935; GC4935, read-out: MINIMAL INHIBITORY CONCENTRATION MIC, pre-incubated in Water): 4 µg/mL (≈ 5.28 µM)
MIC (E. faecalis GC 2265; GC2265, read-out: MINIMAL INHIBITORY CONCENTRATION MIC, pre-incubated in Human Serum): 2 µg/mL (≈ 2.64 µM)
MIC (E. faecalis GC 2265; GC2265, read-out: MINIMAL INHIBITORY CONCENTRATION MIC, pre-incubated in Mouse Serum): 2 µg/mL (≈ 2.64 µM)
MIC (E. faecalis GC 2265; GC2265, read-out: MINIMAL INHIBITORY CONCENTRATION MIC, pre-incubated in Water): 4 µg/mL (≈ 5.28 µM)
MIC (E. faecalis GC 2267; GC2267, read-out: MINIMAL INHIBITORY CONCENTRATION MIC, pre-incubated in Human Serum): 4 µg/mL (≈ 5.28 µM)
MIC (E. faecalis GC 2267; GC2267, read-out: MINIMAL INHIBITORY CONCENTRATION MIC, pre-incubated in Mouse Serum): 2 µg/mL (≈ 2.64 µM)
MIC (E. faecalis GC 2267; GC2267, read-out: MINIMAL INHIBITORY CONCENTRATION MIC, pre-incubated in Water): 4 µg/mL (≈ 5.28 µM)
MIC (E. faecium GC 2243; GC2243, read-out: MINIMAL INHIBITORY CONCENTRATION MIC, pre-incubated in Human Serum): 4 µg/mL (≈ 5.28 µM)
MIC (E. faecium GC 2243; GC2243, read-out: MINIMAL INHIBITORY CONCENTRATION MIC, pre-incubated in Mouse Serum): 2 µg/mL (≈ 2.64 µM)
MIC (E. faecium GC 2243; GC2243, read-out: MINIMAL INHIBITORY CONCENTRATION MIC, pre-incubated in Water): 4 µg/mL (≈ 5.28 µM)
MIC (c. albicans GC 3066; Candida albicans, GC3066, read-out: MINIMAL INHIBITORY CONCENTRATION MIC): > 64 µg/mL
MINIMAL INHIBITORY CONCENTRATION MIC (c. albicans GC 3066; pre-incubated in Human Serum): >64 UG/ML
MINIMAL INHIBITORY CONCENTRATION MIC (c. albicans GC 3066; pre-incubated in Mouse Serum): >64 UG/ML
Structure (SMILES): CCC(C)(C)C(=O)OCOC(=O)N(CC(=O)Nc1cc(N(C)C)c2c(c1O)C(=O)C1=C(O)[C@]3(O)C(=O)C(C(N)=O)=C(O)[C@@H](N(C)C)[C@@H]3C[C@@H]1C2)C(C)(C)C [Example 44, ({[(2-{[(5aR,6aS,7S,10aS)-9-(aminocarbonyl)-4,7-bis(dimethylamino)-1,8,10a,11-tetrahydroxy-10,12-dioxo-5,5a,6,6a,7,10,10a,12-octahydrotetracen-2-yl]amino}-2-oxoethyl)(tert-butyl)amino]carbonyl}oxy)methyl 2,2-dimethylbutanoate]
